Reference: US10940150B2, “Thymine derivatives and quinazoline-dione derivatives for the inhibition of HSP27” (TECHNISCHE UNIVERSITAET DRESDEN, priority 2014, dated 2021)

Experiments:
[1] = target: HSP27 (Homo sapiens, UniProt P04792); test: Capillary electrophoresis of heat-denatured citrate synthase protein precipitates; type: biochemical; conditions: for Efficacy compared with BVDU: 10 μmol/L vs 750 μmol/L BVDU
Method: (§1) Since the heat-denatured protein aggregates of the citrate synthase from Example 1 are not water-soluble, these can be separated completely from the supernatant by means of centrifugation at room temperature at 16,000×g, 10 min. By using capillary electrophoresis, the compositions of the separated precipitates can be shown and quantified. The relative quantity of protein of precipitated citrate synthase serves as a measure of the efficacy of the test substances.
(§2) In each case, 481 nmol/L HSP27 and 1.44 μmol/L citrate synthase in 40 mmol/L HEPES buffer, pH 7.4, were employed. The relative quantity of protein of the precipitated citrate synthase in each case was normalized using a defined quantity of BSA as internal standard. The relative quantity of protein that precipitated when using 750 μmol/L BVDU was set at 1. The other test substances (2 representatives of phenothiazine derivatives of general formula (V), 2 representatives of purine derivatives of formula (I) or (II)) were each employed at a concentration of 10 μmol/L.
as §1, with “Example 2” for “Example 1”
as §2, with “nM” for “nmol/L”, “thymine” for “purine”, “were” for “were each”, “μmol/L in each case.” for “μmol/L.”
Otherwise, the experiments were performed as described above: […]

[2] = test system: U937 cells; test: Development of resistance to bortezomib in U937 cells; type: cell-based
Method: For this purpose, U937 cells (histiocytic lymphoma) were cultured in DMEM culture medium (+10% FCS) at 37° C., 5% CO2 in an H2O-saturated atmosphere. 100,000 cells/ml were seeded and incubated with the cytostatic agent bortezomib (0.1 ng/ml) and the respective test substance (dosage in the current experiment: 1 μM/L acepromazine). The reference substance, BVDU, was employed at a concentration of 30 μM/L. The cells were in each case passaged before the cell count reached 1,000,000 cells/ml. At each passage, 100,000 cells/ml were again seeded and the dose of the cytostatic agent bortezomib was increased stepwise (0.1 ng/mL or 0.05 ng/mL). The concentration of the test substances remained constant. As a result of the stepwise increase in the dosage of the cytostatic agent, resistance developed in the U937 cells. The development of resistance is prevented or inhibited in the case of a positively tested HSP27 inhibitor. The experiments from Example 6 were repeated in the same way, wherein U937 cells (histiocytic lymphoma) are cultured in DMEM culture medium (+10% FCS) at 37° C., 5% CO2 in an H2O-saturated atmosphere. 100,000 cells/ml were seeded and incubated with an initial concentration of 0.2 ng/ml of the cytostatic agent bortezomib and both without an inhibitor and with acepromazine as an HSP27 inhibitor at a concentration of 1 μM/L. The reference substance, BVDU, was employed at a concentration of 30 μM/L. The cells were passaged in each case before the cell count reached 1,000,000 cells/ml. At each passage, 100,000 cells/ml were again seeded and the dose of the cytostatic agent bortezomib was increased stepwise by 0.1 ng/mL. The concentration of the test substance and the reference substance remained constant. As a result of the stepwise increase in the dosage of the cytostatic agent, resistance developed in the U937 cells. The development of resistance is prevented or inhibited in the case of a positively tested HSP27 inhibitor. The cell line U-937 is a histiocytic lymphoma (DSMZ ACC 5). This cell line also responds to treatment with bortezomib, expresses HSP27 and develops resistance to bortezomib. Bortezomib is not the standard therapy for this lymphoma, but is being discussed as a possible therapeutic agent. U-937 cells were seeded with a cell count of 100,000 cells/ml in each case and regularly passaged. […] At the end of the experiment, 70,000 living cells per ml medium could be detected. For the treatment with 30 μmol/L BVDU, a final cell count of 250,000 cells/ml was detected whereas the final cell count in the culture without the addition of an HSP27 inhibitor amounted to 450,000 cells/ml. As a control, U-937 cells were treated with the respective test substances alone, FIG. 10b.

[3] = test system: RPMI-8226 cells; test: Development of resistance to bortezomib in RPMI-8226 cells; type: cell-based
Method: The cell line RPMI-8226 (DMSZ 402) is a “multiple myeloma” cell line and was chosen because bortezomib is employed as a standard therapy for multiple myeloma. RPMI-8226 cells respond to bortezomib, express HSP27 and develop resistance to Velcade. RPMI-8226 cells were seeded at a cell count of 100,000 cells/ml in each case and regularly passaged. […] In contrast, for RPMI 8226 cells that were treated with 30 μmol/L BVDU, a final cell count of 160,000 cells/ml was detected whereas the final cell count for the culture without the addition of an HSP27 inhibitor amounted to 350,000 cells/ml. As a control, RPMI 8226 cells were treated with the respective test substances alone, FIG. 4b.

Sequence of HSP27 (P04792 whole entry): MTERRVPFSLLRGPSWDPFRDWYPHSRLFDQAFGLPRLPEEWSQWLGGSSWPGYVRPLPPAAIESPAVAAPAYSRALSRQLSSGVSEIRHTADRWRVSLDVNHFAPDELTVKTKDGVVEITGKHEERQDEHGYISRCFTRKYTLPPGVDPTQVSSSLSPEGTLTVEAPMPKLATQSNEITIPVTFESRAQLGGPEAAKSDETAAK

Structure (SMILES): O=c1[nH]c(=O)n([C@H]2C[C@H](O)[C@@H](CO)O2)cc1/C=C/Br [BVDU, (E)-5-(2-bromovinyl)-2′-deoxyuridine]
- Rel. quantity of protein prec. CS ([1]; 750 μmol/L, 43° C. for 70 minutes, set at 1 (Table 3)): 1
- Rel. quantity of protein prec. CS ([1]; 750 μmol/L, 43° C. for 120 minutes, set at 1 (Table 1)): 1
- Rel. quantity of protein prec. CS ([1]; 750 μmol/L, 43° C. for 120 minutes, set at 1 (Table 2)): 1
- final cell count ([2]; bortezomib 0.1-0.5 ng/ml + 30 μmol/L BVDU (FIG. 10a), without HSP27 inhibitor 450,000 cells/ml): 250,000 cells/ml
- final cell count ([2]; bortezomib 0.1-0.5 ng/ml + 30 μmol/L BVDU (FIG. 11a), without HSP27 inhibitor 450,000 cells/ml): 250,000 cells/ml
- final cell count ([2]; bortezomib 0.1 to 0.5 ng/ml stepwise + 30 μM BVDU (FIG. 2), without HSP27 inhibitor 790,000 cells/ml): 430,000 cells/ml
- final cell count ([2]; bortezomib 0.2 to 0.4 ng/ml stepwise + 30 μM BVDU (FIG. 3), without HSP27 inhibitor 230,000 cells/ml): 60,000 cells/ml
- final cell count ([3]; bortezomib 0.075-0.275 ng/ml + 30 μmol/L BVDU (FIG. 9a), without HSP27 inhibitor 510,000 cells/ml): 340,000 cells/ml
- final cell count ([3]; bortezomib 0.2-0.4 ng/ml + 30 μmol/L BVDU (FIG. 4a), without HSP27 inhibitor 350,000 cells/ml): 160,000 cells/ml
- final cell count ([3]; bortezomib 0.2-0.4 ng/ml + 30 μmol/L BVDU (FIG. 5a), without HSP27 inhibitor 350,000 cells/ml): 160,000 cells/ml

Structure (SMILES): CC(=O)c1ccc2c(c1)N(CCCN(C)C)c1ccccc1S2 [Acepromazine]
- Efficacy compared with BVDU ([1]; 43° C. for 120 minutes (Table 1)): 74.25 x
- Efficacy compared with BVDU ([1]; 43° C. for 120 minutes (Table 2)): 74.25 x
- Rel. quantity of protein prec. CS ([1]; 10 μmol/L, 43° C. for 120 minutes, relative to 750 μmol/L BVDU = 1 (Table 1)): 0.99
- Rel. quantity of protein prec. CS ([1]; 10 μmol/L, 43° C. for 120 minutes, relative to 750 μmol/L BVDU = 1 (Table 2)): 0.99
- development of resistance to the cytostatic agent bortezomib ([2]; bortezomib 0.1-0.5 ng/ml + 0.75 μmol/L acepromazine (FIG. 10a)): significantly inhibited
- living cells at the end of the experiment ([2]; bortezomib 0.1-0.5 ng/ml + 0.75 μmol/L acepromazine (FIG. 10a), without HSP27 inhibitor 450,000 cells/ml): 70,000 living cells per ml medium
- development of resistance to bortezomib ([2]; bortezomib 0.1 to 0.5 ng/ml stepwise + 1 μM acepromazine (FIG. 2)): no development of resistance occurred
- living cells at the end of the experiment ([2]; bortezomib 0.1 to 0.5 ng/ml stepwise + 1 μM acepromazine (FIG. 2), without HSP27 inhibitor 790,000 cells/ml): no living cells were detectable
- development of resistance to bortezomib ([2]; bortezomib 0.2 to 0.4 ng/ml stepwise + 1 μM acepromazine (FIG. 3)): no development of resistance occurred
- living cells at the end of the experiment ([2]; bortezomib 0.2 to 0.4 ng/ml stepwise + 1 μM acepromazine (FIG. 3), without HSP27 inhibitor 230,000 cells/ml): no living cells were detectable
- development of resistance to the cytostatic agent bortezomib ([3]; bortezomib 0.2-0.4 ng/ml + 0.75 μmol/L acepromazine (FIG. 4a)): significantly inhibited
- living cells at the end of the experiment ([3]; bortezomib 0.2-0.4 ng/ml + 0.75 μmol/L acepromazine (FIG. 4a), without HSP27 inhibitor 350,000 cells/ml): 30,000 living cells per ml medium
